Counter-ions that a name gives are not always drawn. Like-named read-outs stand apart in the source and are kept apart here.
Tests used:
RSV-Luc5 = assay: microbe, parasite or virus in culture; assay type: cell-based; details: human respiratory syncytial virus, NHBE, 72 h, read-out: RSV NHBE EC50 (nM)
[1] = test system: Caco-2 cells (clone C2BBe1); details: human
in vitro [2] = assay type: cell-based; details: human
Procedure: Example C: CC50 MT4 Cytotoxicity of the compounds was determined in uninfected cells using the cell viability reagent in a similar fashion as described before for other cell types ([…] et al., Antimicrob Agents Chemother. 2008,52(2):655-65). […] Cells were cultured for 4-5 days at 37° C. Following the incubation, the cells were allowed to equilibrate to 25° C., and cell viability was determined by adding Cell-Titer Glo viability reagent. The mixture was incubated for 10 min, and the luminescence signal was quantified using an Envision plate reader. Untreated cell and cells treated at 2 μM puromycin (Sigma, St. Louis, MO) serve as 100% and 0% cell viability control, respectively. The percent of cell viability was calculated for each tested compound concentration relative to the 0% and 100% controls and the CC50 value was determined by non-linear regression as a compound concentration reducing the cell viability by 50%.

in vitro [3] = assay type: in vitro ADME; details: human, s9, pH 7.4
Procedure: Example D: GI S9 Stability […] The S9 metabolic reactions were initiated by the addition of the substrates to the S9 reaction mixture to a final concentration of 2 μM. […] Aliquots ([…]) of the diluted supernatant were analyzed on a Thermo Q-Exactive mass spectrometer as described below. Example F: Liquid Chromatography/Mass Spectroscopy Methods for S9 and Plasma Stability Quantification of test compounds, Reference Compound A (S9 stability assay nucleoside metabolite), and controls was performed by analyte/internal standard peak area ratio (PAR) values measured on a Thermo Q-Exactive mass spectrometer coupled to a Dionex UltiMate 3000 HPLC with a Leap Technologies HTC PAL autosampler. […] Mobile phase A consisted of 0.1% (v/v) formic acid in water. Mobile phase B consisted of 0.1% (v/v) formic acid in acetonitrile. Elution of analytes was achieved by a series of linear gradients of acetonitrile in water containing 0.10% (v/v) formic acid. The mass spectrometer was calibrated on a weekly basis and mass tolerance of 5 ppm was used.

in vitro [4] = details: human, plasma
SARS-CoV2-NLuc = assay: microbe, parasite or virus in culture; assay type: cell-based, SARS Coronavirus 2; details: Severe acute respiratory syndrome coronavirus 2, 48 h, read-out: SARS-CoV2 EC50 (nM)

SMILES: CC(C)OC(=O)OC[C@H]1O[C@@](C#N)(c2ccc3c(N)ncnn23)[C@@H]2OC(=O)CCCC(=O)O[C@@H]21 [Compound C2, ((7aR,8R,10R,10aR)-10-(4-aminopyrrolo[2,1-f][1,2,4]triazin-7-yl)-10-cyano-2,6-dioxooctahydro-2H-furo[3,4-b][1,4]dioxonin-8-yl)methyl isopropyl carbonate]
- EC50 (RSV-Luc5): 3350 nM
- Caco2 A to B ([1]; Caco-2): 1.66
- Caco2 B to A ([1]; Caco-2): 7.32
- CC50 (in vitro [2]): > 50 µM
- half-life at 2 μM (in vitro [3]): 0.616 min
- half-life at 2 μM (in vitro [4]): 7.8 min
- EC50 (SARS-CoV2-NLuc): 9600 nM

SMILES: CC(C)OC(=O)OC[C@H]1O[C@@](C#N)(c2ccc3c(N)ncnn23)[C@@H]2OC(=O)CC(C)(C)CC(=O)O[C@@H]21 [Compound C3, ((7aR,8R,10R,10aR)-10-(4-aminopyrrolo[2,1-f][1,2,4]triazin-7-yl)-10-cyano-4,4-dimethyl-2,6-dioxooctahydro-2H-furo[3,4-b][1,4]dioxonin-8-yl)methyl isopropyl carbonate]
- EC50 (RSV-Luc5): > 50000 nM
- Caco2 A to B ([1]; Caco-2): 5.9
- Caco2 B to A ([1]; Caco-2): 7.3
- CC50 (in vitro [2]): > 50 µM
- half-life at 2 μM (in vitro [3]): 6 min
- half-life at 2 μM (in vitro [4]): 1240 min
- EC50 (SARS-CoV2-NLuc): 12000 nM

SMILES: CC(C)OC(=O)OC[C@H]1O[C@@](C#N)(c2ccc3c(N)ncnn23)[C@@H]2OC(=O)CN(C)CC(=O)O[C@@H]21 [Compound C4, ((7aR,8R,10R,10aR)-10-(4-aminopyrrolo[2,1-f][1,2,4]triazin-7-yl)-10-cyano-4-methyl-2,6-dioxooctahydro-2H-furo[3,4-b][1,4,7]dioxazonin-8-yl)methyl isopropyl carbonate]
- EC50 (RSV-Luc5): 3120 nM
- Caco2 A to B ([1]; Caco-2): 0.023
- Caco2 B to A ([1]; Caco-2): 2
- CC50 (in vitro [2]): > 50 µM
- half-life at 2 μM (in vitro [3]): 0.694 min
- half-life at 2 μM (in vitro [4]): 65.6 min
- EC50 (SARS-CoV2-NLuc): 6730 nM

SMILES: CCOC(=O)OC[C@H]1O[C@@](C#N)(c2ccc3c(N)ncnn23)[C@@H]2OC(=O)CC(C)(C)CC(=O)O[C@@H]21 [Compound C14, ((7aR,8R,10R,10aR)-10-(4-aminopyrrolo[2,1-f][1,2,4]triazin-7-yl)-10-cyano-4,4-dimethyl-2,6-dioxooctahydro-2H-furo[3,4-b][1,4]dioxonin-8-yl)methyl ethyl carbonate]
- EC50 (RSV-Luc5): > 50000 nM
- Caco2 A to B ([1]; Caco-2): 4.27
- Caco2 B to A ([1]; Caco-2): 8.55
- CC50 (in vitro [2]): > 50 µM
- half-life at 2 μM (in vitro [3]): 4.03 min
- half-life at 2 μM (in vitro [4]): 27.1 min
- EC50 (SARS-CoV2-NLuc): > 50000 nM

SMILES: N#C[C@@]1(c2ccc3c(N)ncnn23)O[C@H](COC(=O)OC2CCOCC2)[C@H]2OC(=O)CCCC(=O)O[C@H]21 [Compound C16, ((7aR,8R,10R,10aR)-10-(4-aminopyrrolo[2,1-f][1,2,4]triazin-7-yl)-10-cyano-2,6-dioxooctahydro-2H-furo[3,4-b][1,4]dioxonin-8-yl)methyl (tetrahydro-2H-pyran-4-yl) carbonate]
- EC50 (RSV-Luc5): 20000 nM
- Caco2 A to B ([1]; Caco-2): 0.68
- Caco2 B to A ([1]; Caco-2): 5.08
- CC50 (in vitro [2]): > 50 µM
- half-life at 2 μM (in vitro [3]): 0.605 min
- half-life (in vitro [4]): 14.1 min
- EC50 (SARS-CoV2-NLuc): 14900 nM

SMILES: CN1[C@@H]2CC[C@H]1C[C@@H](OC(=O)OC[C@H]1O[C@@](C#N)(c3ccc4c(N)ncnn34)[C@@H]3OC(=O)CCCC(=O)O[C@@H]31)C2 [Compound C30, ((7aR,8R,10R,10aR)-10-(4-aminopyrrolo[2,1-f][1,2,4]triazin-7-yl)-10-cyano-2,6-dioxooctahydro-2H-furo[3,4-b][1,4]dioxonin-8-yl)methyl ((1R,3s,5S)-8-methyl-8-azabicyclo[3.2.1]octan-3-yl) carbonate formate]
- EC50 (RSV-Luc5): > 50000 nM
- Caco2 A to B ([1]; Caco-2, 2 h): 0.02
- Caco2 B to A ([1]; Caco-2, 2 h): 0.42
- CC50 (in vitro [2]): > 50 µM
- half-life at 2 μM (in vitro [3]): 0.575 min
- half-life at 2 μM (in vitro [4]): 24 min
- EC50 (SARS-CoV2-NLuc): 42500 nM

SMILES: COC(=O)[C@H]([C@@H](C)OC(=O)OC[C@H]1O[C@@](C#N)(c2ccc3c(N)ncnn23)[C@@H]2OC(=O)CCCC(=O)O[C@@H]21)N(C)C [Compound C31, (2S,3R)-methyl 3-(((((7aR,8R,10R,10aR)-10-(4-aminopyrrolo[2,1-f][1,2,4]triazin-7-yl)-10-cyano-2,6-dioxooctahydro-2H-furo[3,4-b][1,4]dioxonin-8yl)methoxy)carbonyl)oxy)-2-(dimethylamino)butanoate 2,2,2-trifluoroacetate]
- EC50 (RSV-Luc5): 9190 nM
- Caco2 A to B ([1]; Caco-2): 0.49
- Caco2 B to A ([1]; Caco-2): 5.62
- CC50 (in vitro [2]): > 50 µM
- half-life at 2 μM (in vitro [3]): 0.57 min
- half-life at 2 μM (in vitro [4]): 15.5 min
- EC50 (SARS-CoV2-NLuc): 6060 nM

SMILES: CC1(C)CC(=O)O[C@H]2[C@@H](OC(=O)C1)[C@](C#N)(c1ccc3c(N)ncnn13)O[C@@H]2COC(=O)OC1CCOCC1 [Compound C33, ((7aR,8R,10R,10aR)-10-(4-aminopyrrolo[2,1-f][1,2,4]triazin-7-yl)-10-cyano-4,4-dimethyl-2,6-dioxooctahydro-2H-furo[3,4-b][1,4]dioxonin-8-yl)methyl (tetrahydro-2H-pyran-4-yl) carbonate]
- EC50 (RSV-Luc5): > 50000 nM
- Caco2 A to B ([1]; Caco-2): 0.41
- Caco2 B to A ([1]; Caco-2): 3.17
- CC50 (in vitro [2]): > 50 µM
- half-life at 2 μM (in vitro [3]): 29 min
- half-life (in vitro [4]): 609 min
- EC50 (SARS-CoV2-NLuc): > 50000 nM

SMILES: CC1(C)CC(=O)O[C@H]2[C@@H](OC(=O)C1)[C@](C#N)(c1ccc3c(N)ncnn13)O[C@@H]2COC(=O)OC1CCOC1 (stereo partly drawn) [Compound C40, ((7aR,8R,10R,10aR)-10-(4-aminopyrrolo[2,1-f][1,2,4]triazin-7-yl)-10-cyano-4,4-dimethyl-2,6-dioxooctahydro-2H-furo[3,4-b][1,4]dioxonin-8-yl)methyl (tetrahydrofuran-3-yl) carbonate]
- EC50 (RSV-Luc5): > 50000 nM
- Caco2 A to B ([1]; Caco-2): 0.69
- Caco2 B to A ([1]; Caco-2): 5.13
- CC50 (in vitro [2]): > 50 µM
- half-life at 2 μM (in vitro [3]): 5.83 min
- half-life at 2 μM (in vitro [4]): 72.5 min
- EC50 (SARS-CoV2-NLuc): > 50000 nM

SMILES: CN1[C@@H]2CC[C@H]1C[C@@H](OC(=O)OC[C@H]1O[C@@](C#N)(c3ccc4c(N)ncnn34)[C@@H]3OC(=O)CC(C)(C)CC(=O)O[C@@H]31)C2 [Compound C47, ((7aR,8R,10R,10aR)-10-(4-aminopyrrolo[2,1-f][1,2,4]triazin-7-yl)-10-cyano-4,4-dimethyl-2,6-dioxooctahydro-2H-furo[3,4-b][1,4]dioxonin-8-yl)methyl ((1R,3s,5S)-8-methyl-8-azabicyclo[3.2.1]octan-3-yl) carbonate formate]
- EC50 (RSV-Luc5): > 50000 nM
- Caco2 A to B ([1]; Caco-2, 2 h): 0.04
- Caco2 B to A ([1]; Caco-2, 2 h): 5.19
- CC50 (in vitro [2]): > 50 µM
- half-life at 2 μM (in vitro [3]): 99.4 min
- half-life at 2 μM (in vitro [4]): 60.2 min
- EC50 (SARS-CoV2-NLuc): > 50000 nM

SMILES: COC(=O)[C@H]([C@@H](C)OC(=O)OC[C@H]1O[C@@](C#N)(c2ccc3c(N)ncnn23)[C@@H]2OC(=O)CC(C)(C)CC(=O)O[C@@H]21)N(C)C [Compound C48, (2S,3R)-methyl 3-(((((7aR,8R,10R,10aR)-10-(4-aminopyrrolo[2,1-f][1,2,4]triazin-7-yl)-10-cyano-4,4-dimethyl-2,6-dioxooctahydro-2H-furo[3,4-b][1,4]dioxonin-8-yl)methoxy)carbonyl)oxy)-2-(dimethylamino)butanoate]
- EC50 (RSV-Luc5): > 50000 nM
- Caco2 A to B ([1]; Caco-2): 0.22
- Caco2 B to A ([1]; Caco-2): 1.81
- CC50 (in vitro [2]): > 50 µM
- half-life at 2 μM (in vitro [3]): 29.5 min
- half-life at 2 μM (in vitro [4]): 20.3 min
- EC50 (SARS-CoV2-NLuc): > 50000 nM

SMILES: CC(C)OC(=O)OC[C@H]1O[C@@](C#N)(c2ccc3c(N)ncnn23)[C@@H]2OC(=O)OCCC=CCCOC(=O)O[C@@H]21 [Compound C52, ((12aR,13R,15R,15aR)-15-(4-aminopyrrolo[2,1-f][1,2,4]triazin-7-yl)-15-cyano-2,11-dioxo-4,5,8,9,12a,13,15,15a-octahydrofuro[3,4-d][1,3,6,8]tetraoxacyclotetradecin-13-yl)methyl isopropyl carbonate]
- EC50 (RSV-Luc5): 1600 nM
- Caco2 A to B ([1]; Caco-2): 6.77
- Caco2 B to A ([1]; Caco-2): 11.87
- CC50 (in vitro [2]): > 50 µM
- half-life at 2 μM (in vitro [3]): 0.6 min
- half-life (in vitro [4]): 1580 min
- EC50 (SARS-CoV2-NLuc): 7100 nM

SMILES: CC(C)OC(=O)OC[C@H]1O[C@@](C#N)(c2ccc3c(N)ncnn23)[C@@H]2OC(=O)OCCCCCCOC(=O)O[C@@H]21 [Compound C53, ((12aR,13R,15R,15aR)-15-(4-aminopyrrolo[2,1-f][1,2,4]triazin-7-yl)-15-cyano-2,11-dioxodecahydrofuro[3,4-d][1,3,6,8]tetraoxacyclotetradecin-13-yl)methyl isopropyl carbonate]
- EC50 (RSV-Luc5): 1330 nM
- Caco2 A to B ([1]; Caco-2): 9.28
- Caco2 B to A ([1]; Caco-2): 15.92
- CC50 (in vitro [2]): > 50 µM
- half-life at 2 μM (in vitro [3]): 0.691 min
- half-life at 2 μM (in vitro [4]): 317 min
- EC50 (SARS-CoV2-NLuc): 9660 nM
